{"source": "patent US20230146455A1", "about": "“TREATMENT OF INFLAMMATORY DISEASES WITH PEPTIDES AND PHARMACEUTICAL COMPOSITIONS” (Yuyu Pharma, Inc., priority 2020, published 2023)", "tested_on": "CCL3/MIP-1 alpha", "assay": "Example 8 main study Luminex, LPS hPBMCs: CCL3/MIP-1 alpha", "type": "cell-based, human", "description": "Human PBMCs were pretreated with YY-101, YDE-011, YDE-043 or reference compound; Xiidra® at various concentration (ranging from […] to 500 nM) for 2 h before stimulation. An equal volume of 0.5% DMSO was used as a vehicle control. Then, the cells were treated with LPS at 5 ug/ml, which was selected based on the pilot study. The supernatants from treated cells were harvested at 24 h and placed in a 96 well for Luminex cytokine & chemokine profiling using a Luminex 200 multiplex assay (Luminex; R&D system, USA).\nThe main study arm with triplicate wells per group in a 24-well plate: • 1. Blank • 2. PBMC: 0.5% DMSO • 3. PBMC+LPS (5 ug/ml) • 4. PBMC+YY-101 500 nM • 5. PBMC+YY-101 50 nM • 6. PBMC+YY-101 5 nM • 7. PBMC+YY-101 0.5 nM • 8. PBMC+LPS (5 ug/ml)+Xiidra® 500 nM • 9. PBMC+LPS (5 ug/ml)+Xiidra® 50 nM • 10. PBMC+LPS (5 ug/ml)+Xiidra® 5 nM • 11. PBMC+LPS (5 ug/ml)+Xiidra® 0.5 nM • 12. PBMC+LPS (5 ug/ml)+Xiidra® 0.05 nM • 13. PBMC+LPS (5 ug/ml)+Xiidra® 0.005 nM • 14. PBMC+LPS (5 ug/ml)+YY-101 500 nM • 15. PBMC+LPS (5 ug/ml)+YY-101 50 nM • 16. PBMC+LPS (5 ug/ml)+YY-101 5 nM • 17. PBMC+LPS (5 ug/ml)+YY-101 0.5 nM • 18. PBMC+LPS (5 ug/ml)+YY-101 0.05 nM • 19. PBMC+LPS (5 ug/ml)+YY-101 0.005 nM • 20. PBMC+LPS (5 ug/ml)+YDE-011 500 nM • 21. PBMC+LPS (5 ug/ml)+YDE-011 50 nM • 22. PBMC+LPS (5 ug/ml)+YDE-011 5 nM • 23. PBMC+LPS (5 ug/ml)+YDE-011 0.5 nM • 24. PBMC+LPS (5 ug/ml)+YDE-011 0.05 nM • 25. PBMC+LPS (5 ug/ml)+YDE-011 0.005 nM • 26. PBMC+LPS (5 ug/ml)+YDE-043 500 nM • 27. PBMC+LPS (5 ug/ml)+YDE-043 50 nM • 28. PBMC+LPS (5 ug/ml)+YDE-043 5 nM • 29. PBMC+LPS (5 ug/ml)+YDE-043 0.5 nM • 30. PBMC+LPS (5 ug/ml)+YDE-043 0.05 nM • 31. PBMC+LPS (5 ug/ml)+YDE-043 0.005 nM\nMultiplex assay was used to measure 30 cytokines and chemokines. The 1:200 diluted cell supernatant and serial dilution of the standard were dispensed into a 96 well plate at 50 ul/well. Then, the pre-mixed cocktail of antibody-coated magnetic beads was dispensed at 50 ul/well and incubated at room temperature for 2 h in a horizontal orbital microplate shaker at 800±500 rpm. The beads were washed using a magnetic device to prevent loss. The biotin-antibody was dispensed in 50 ul of each well and incubated at room temperature for 1 h in a shaker at 800±500 rpm. After washing, streptavidin-PE was added at 50 ul/well and incubated at room temperature for 30 min in a shaker under the same conditions. Finally, after washing, wash buffer (100 ul/well) was added to the plate and incubated in a shaker for 2 min. The Luminex™ 200 setting were set according to the manufacturer's protocol. The data was calculated with a standard five-parameter logistic nonlinear regression analysis of the data (xPonent software 4.2, USA). Results were presented as concentration (ng/ml or pg/ml).", "key": {"[1]": {"details": "PBMC + LPS(5 ug/ml) + test article 0.005 nM, Mean"}, "[2]": {"details": "PBMC + LPS(5 ug/ml) + test article 0.005 nM, single replicates"}, "[3]": {"details": "PBMC + LPS(5 ug/ml) + test article 0.05 nM, Mean"}, "[4]": {"details": "PBMC + LPS(5 ug/ml) + test article 0.05 nM, single replicates"}, "[5]": {"details": "PBMC + LPS(5 ug/ml) + test article 0.5 nM, Mean"}, "[6]": {"details": "PBMC + LPS(5 ug/ml) + test article 0.5 nM, single replicates"}, "[7]": {"details": "PBMC + LPS(5 ug/ml) + test article 5 nM, Mean"}, "[8]": {"details": "PBMC + LPS(5 ug/ml) + test article 5 nM, single replicates"}, "[9]": {"details": "PBMC + LPS(5 ug/ml) + test article 50 nM, Mean"}, "[10]": {"details": "PBMC + LPS(5 ug/ml) + test article 50 nM, single replicates"}, "[11]": {"details": "PBMC + LPS(5 ug/ml) + test article 500 nM, Mean"}, "[12]": {"details": "PBMC + LPS(5 ug/ml) + test article 500 nM, single replicates"}}, "note": "“And” between values parts separate entries of the source, which are not always exact repeats. Identical values can stand only once. Where a SMILES comes first, the peptide text is derived from it. [ ]: non-standard residue; d: D form. Hyp = O=C(O)[C@@H]1C[C@@H](O)CN1", "data": [{"smiles": "CC(C)C[C@H](NC(=O)[C@H](CCC(N)=O)NC(=O)CNC(=O)[C@@H]1C[C@@H](O)CN1)C(=O)NCC(=O)O", "note": "[YDE-043] (H-[Hyp]GQLG-OH; N-terminus and C-terminus assumed)", "values": [{"measurement": "CCL3/MIP-1 alpha Concentration", "setting": "[1]", "value": 38526.9, "unit": "pg/mL"}, {"measurement": "CCL3/MIP-1 alpha MFI", "setting": "[1]", "value": 57.3}, {"measurement": "CCL3/MIP-1 alpha Concentration", "setting": "[2]", "value": "32345.4 pg/mL and 37296.1 pg/mL and 45939.1 pg/mL"}, {"measurement": "CCL3/MIP-1 alpha MFI", "setting": "[2]", "value": "44.0 and 54.0 and 74.0"}, {"measurement": "CCL3/MIP-1 alpha Concentration", "setting": "[3]", "value": 29535.1, "unit": "pg/mL"}, {"measurement": "CCL3/MIP-1 alpha MFI", "setting": "[3]", "value": 38.8}, {"measurement": "CCL3/MIP-1 alpha Concentration", "setting": "[4]", "value": "28213.9 pg/ml and 30195.7 pg/ml (2×)"}, {"measurement": "CCL3/MIP-1 alpha MFI", "setting": "[4]", "value": "36.5 and 40.0 (2×)"}, {"measurement": "CCL3/MIP-1 alpha Concentration", "setting": "[5]", "value": 30000.1, "unit": "pg/mL"}, {"measurement": "CCL3/MIP-1 alpha MFI", "setting": "[5]", "value": 39.7}, {"measurement": "CCL3/MIP-1 alpha Concentration", "setting": "[6]", "value": "29639.8 pg/mL and 31284.6 pg/mL and 29075.9 pg/mL"}, {"measurement": "CCL3/MIP-1 alpha MFI", "setting": "[6]", "value": "39.0 and 42.0 and 38.0"}, {"measurement": "CCL3/MIP-1 alpha Concentration", "setting": "[7]", "value": 31809.4, "unit": "pg/mL"}, {"measurement": "CCL3/MIP-1 alpha MFI", "setting": "[7]", "value": 43.0}, {"measurement": "CCL3/MIP-1 alpha Concentration", "setting": "[8]", "value": "31818.4 pg/mL and 32865.8 pg/mL and 30743.9 pg/mL"}, {"measurement": "CCL3/MIP-1 alpha MFI", "setting": "[8]", "value": "43.0 and 45.0 and 41.0"}, {"measurement": "CCL3/MIP-1 alpha Concentration", "setting": "[9]", "value": 31754.6, "unit": "pg/mL"}, {"measurement": "CCL3/MIP-1 alpha MFI", "setting": "[9]", "value": 43.0}, {"measurement": "CCL3/MIP-1 alpha Concentration", "setting": "[10]", "value": "33380.1 pg/ml (2×) and 28503.4 pg/ml"}, {"measurement": "CCL3/MIP-1 alpha MFI", "setting": "[10]", "value": "46.0 (2×) and 37.0"}, {"measurement": "CCL3/MIP-1 alpha Concentration", "setting": "[11]", "value": 28096.2, "unit": "pg/mL"}, {"measurement": "CCL3/MIP-1 alpha MFI", "setting": "[11]", "value": 36.3}, {"measurement": "CCL3/MIP-1 alpha Concentration", "setting": "[12]", "value": "28503.4 pg/mL and 26426.3 pg/mL and 29358.9 pg/mL"}, {"measurement": "CCL3/MIP-1 alpha MFI", "setting": "[12]", "value": "37.0 and 33.5 and 38.5"}, {"measurement": "LPS-induced CCL-3 (in words)", "setting": "at as low as 5 μM, LPS 5 ug/mL 24 hrs", "value": "significantly reduced"}]}]}
